Measured values: ChEMBL document CHEMBL1136061, “Novel potent antagonists of human neuropeptide Y Y5 receptors. Part 2: substituted benzo[a]cycloheptene derivatives” (Bioorg Med Chem Lett, 2002)

Key:
[1] = target: T1, Neuropeptide Y receptor type 5 (Homo sapiens, UniProt Q15761); experiment: (§1) Concentration that inhibited 50% of total specific binding of [125I]PYY ligand to human NPY-Y5 receptor
T1 sequence (Q15761 whole entry): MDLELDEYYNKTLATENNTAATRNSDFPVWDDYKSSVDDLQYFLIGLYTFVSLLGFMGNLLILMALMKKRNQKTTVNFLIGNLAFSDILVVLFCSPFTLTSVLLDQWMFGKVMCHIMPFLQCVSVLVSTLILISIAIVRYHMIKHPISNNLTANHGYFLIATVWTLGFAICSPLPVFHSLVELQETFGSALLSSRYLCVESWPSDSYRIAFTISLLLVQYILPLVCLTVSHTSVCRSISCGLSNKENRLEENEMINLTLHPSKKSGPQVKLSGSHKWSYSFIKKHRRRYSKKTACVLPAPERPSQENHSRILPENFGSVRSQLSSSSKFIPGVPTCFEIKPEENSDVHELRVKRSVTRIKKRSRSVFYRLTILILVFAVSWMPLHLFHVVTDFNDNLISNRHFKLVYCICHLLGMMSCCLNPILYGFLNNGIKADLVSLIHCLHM

[2] = target: T2, Neuropeptide Y receptor type 1 (Homo sapiens, UniProt P25929); experiment: Concentration that inhibited 50% of total specific binding of [125I]PYY ligand to human NPY-Y1 receptor
T2 sequence (P25929 whole entry): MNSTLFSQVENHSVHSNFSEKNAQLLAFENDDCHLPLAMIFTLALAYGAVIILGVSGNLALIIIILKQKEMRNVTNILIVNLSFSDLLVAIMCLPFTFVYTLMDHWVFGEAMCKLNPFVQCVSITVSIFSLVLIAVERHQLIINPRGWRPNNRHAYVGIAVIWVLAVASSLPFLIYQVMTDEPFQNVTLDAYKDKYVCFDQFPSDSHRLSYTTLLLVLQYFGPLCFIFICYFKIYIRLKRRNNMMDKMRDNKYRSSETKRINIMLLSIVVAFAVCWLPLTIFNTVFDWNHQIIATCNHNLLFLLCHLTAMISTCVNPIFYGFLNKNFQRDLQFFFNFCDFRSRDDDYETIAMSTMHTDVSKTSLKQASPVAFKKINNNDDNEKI

[3] = target: T3, Neuropeptide Y receptor type 5 (Homo sapiens) (UniProt Q15761); experiment: as §1
T3 sequence (whole entry): T1 sequence (Q15761 whole entry)

| IC50 [1] [nM] | IC50 [2] [nM] | inhibition [3] [%] | Structure (SMILES) |
| --- | --- | --- | --- |
| 38 | 1300 | – | O=S(=O)(NC[C@H]1CC[C@@H](CNCC2CCc3ccccc3C2)CC1)c1cccc2ccccc12 (stereo partly drawn) |
| 68 | 17000 | – | COc1cc2c(cc1OC)CC(NCC1CCN(CCNS(=O)(=O)c3cccc4ccccc34)CC1)CCC2 (stereo not drawn) |
| – | – | 25.7 | O=C(O)COc1ccc2c(c1)CC(NCC1CCN(CCNS(=O)(=O)c3cccc4ccccc34)CC1)CCC2 (stereo not drawn) |
| 190 | – | – | Cc1ccc2c(c1)CC(NCC1CN(CCNS(=O)(=O)c3cccc4ccccc34)C1)CCC2 (stereo not drawn) |
| 66 | 35000 | – | COc1ccc2c(c1)CC(NC1CCN(CCNS(=O)(=O)c3cccc4ccccc34)CC1)CCC2 (stereo not drawn) |
| 210 | – | – | O=S(=O)(NCCN1CCC(CNC2CCCc3ccccc3C2)CC1)c1cccc2ccccc12 (stereo not drawn) |
| 16 | 9600 | – | COc1ccc2c(c1)CC(CNCC1CCN(CCNS(=O)(=O)c3cccc4ccccc34)CC1)CCC2 (stereo not drawn) |
| 52 | – | – | Nc1ccc2c(c1)CC(NCC1CCN(CCNS(=O)(=O)c3cccc4ccccc34)CC1)CCC2 (stereo not drawn) |
| 79 | 15000 | – | O=[N+]([O-])c1ccc2c(c1)CC(NCC1CCN(CCNS(=O)(=O)c3cccc4ccccc34)CC1)CCC2 (stereo not drawn) |
| 140 | – | – | COc1ccc2c(c1OC)CC(NCC1CN(CCNS(=O)(=O)c3cccc4ccccc34)C1)CCC2 (stereo not drawn) |
| 45 | 14000 | – | COc1ccc2c(c1)CC(NCC1CCN(CCNS(=O)(=O)c3cccc4ccccc34)CC1)CCC2 (stereo not drawn) |
| 310 | – | – | O=S(=O)(NCCN1CC(CNC2CCCc3ccc(Cl)cc3C2)C1)c1cccc2ccccc12 (stereo not drawn) |
| 39 | 29000 | – | COc1ccc2c(c1)CC(CNC1CCN(CCNS(=O)(=O)c3cccc4ccccc34)CC1)CCC2 (stereo not drawn) |
| 540 | 2800 | – | COc1ccc2c(c1)CC(CNCCN1CCC(CNS(=O)(=O)c3cccc4ccccc34)CC1)CCC2 (stereo not drawn) |
| > 1000 | – | – | COc1cccc2c1CCCC(NCCN1CCC(CNS(=O)(=O)c3cccc4ccccc34)CC1)C2 (stereo not drawn) |
| 72 | 18000 | – | Cc1ccc2c(c1)CC(NCC1CCN(CCNS(=O)(=O)c3cccc4ccccc34)CC1)CCC2 (stereo not drawn) |
| 85 | 8500 | – | O=S(=O)(NCCN1CCC(CNC2CCCc3ccc(Cl)cc3C2)CC1)c1cccc2ccccc12 (stereo not drawn) |
| 680 | – | – | CCOC(=O)COc1ccc2c(c1)CC(NCC1CCN(CCNS(=O)(=O)c3cccc4ccccc34)CC1)CCC2 (stereo not drawn) |
| 740 | 19000 | – | COc1ccc2c(c1)CC(NCCN1CCC(CNS(=O)(=O)c3cccc4ccccc34)CC1)CCC2 (stereo not drawn) |
| 86 | 22000 | – | COc1ccc2c(c1)CC(CNCC1CN(CCNS(=O)(=O)c3cccc4ccccc34)C1)CCC2 (stereo not drawn) |
| 1000 | – | – | COc1ccc2c(c1)CCCC(NCCN1CCC(CNS(=O)(=O)c3cccc4ccccc34)CC1)C2 (stereo not drawn) |
